What was measured:
KSP = biological target: T1, KSP (Homo sapiens, UniProt P52732); assay: Estimated in vitro unbound IC50
T1 sequence (P52732 1-1056): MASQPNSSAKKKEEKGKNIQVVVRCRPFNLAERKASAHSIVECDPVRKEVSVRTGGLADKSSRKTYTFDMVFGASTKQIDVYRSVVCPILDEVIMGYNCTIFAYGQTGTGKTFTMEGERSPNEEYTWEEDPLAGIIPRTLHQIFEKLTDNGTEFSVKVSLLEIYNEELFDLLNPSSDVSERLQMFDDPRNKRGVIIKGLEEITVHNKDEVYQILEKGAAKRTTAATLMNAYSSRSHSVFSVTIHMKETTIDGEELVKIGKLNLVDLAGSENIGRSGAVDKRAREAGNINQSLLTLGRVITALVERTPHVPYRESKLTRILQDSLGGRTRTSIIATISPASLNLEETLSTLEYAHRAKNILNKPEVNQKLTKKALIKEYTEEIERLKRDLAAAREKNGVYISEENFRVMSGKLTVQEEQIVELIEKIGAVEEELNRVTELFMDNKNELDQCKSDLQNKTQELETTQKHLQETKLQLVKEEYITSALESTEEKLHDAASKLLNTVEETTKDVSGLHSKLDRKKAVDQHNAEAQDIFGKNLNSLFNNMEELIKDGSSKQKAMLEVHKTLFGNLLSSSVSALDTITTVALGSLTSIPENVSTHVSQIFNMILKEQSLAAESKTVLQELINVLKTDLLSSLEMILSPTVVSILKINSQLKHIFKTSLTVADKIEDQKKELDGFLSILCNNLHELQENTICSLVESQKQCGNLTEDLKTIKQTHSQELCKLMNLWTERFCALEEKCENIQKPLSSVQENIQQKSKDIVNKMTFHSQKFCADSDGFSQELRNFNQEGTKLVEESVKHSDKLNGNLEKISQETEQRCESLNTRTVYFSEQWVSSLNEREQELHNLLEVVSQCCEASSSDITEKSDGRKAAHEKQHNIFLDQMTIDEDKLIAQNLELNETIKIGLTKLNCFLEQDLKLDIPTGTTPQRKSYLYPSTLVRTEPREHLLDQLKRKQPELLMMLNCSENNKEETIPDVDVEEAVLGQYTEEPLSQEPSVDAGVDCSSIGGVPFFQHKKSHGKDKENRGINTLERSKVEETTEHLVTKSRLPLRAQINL
Protocol: Model optimization was accomplished using the QRPEM engine of Phoenix 6.3 (Pharsight Corporation, St. Louis, Mo.). Model selection was based on AIC comparisons and diagnostic plots. Simulations were for a typical patient receiving Phase 2 dose of 1.5 mg/m^2 on day 1 and day 2 with varying [AAG].

% Fu to human plasma = assay type: in vitro ADME; details: human plasma (ready-to-use bead-based binding assay kit)
Protocol: Thawed the assay kit either at room temperature (approximately 3 hours) or in the refrigerator at 4° C. overnight. The plates were put in the incubator, CO2 (5%) for 30 minutes prior to addition of compound. A pre-dilution of the compounds (10-fold assay concentration) were prepared, see Drug Dilution step above. The drug dilutions were warmed in a 37° C. water bath prior to dosing compound into plate. Caution: Check carefully the pre-dilution for any precipitation and ensure a sufficient buffer solubility and stability of your test article. Test article solution (45 μL) was added to the tubes/well of the ready-to-use kit and incubated for 2 minutes. Mixed ten times by re-suspending the beads. Re-suspended approximately half of the total volume of the vial (total volume is 450 μL). […] The vials were spun with a swing-out centrifuge for 10 minutes at 750 g. 100 μL was carefully transferred to 96-well plate. Acetonitrile (50 μL) was added with labetalol as the internal standard (0.4 μM final concentration). The plates were sealed for analysis. The concentration of the supernatant was quantified with LC/MS (API4000). See also, Brown, Karin D. supra. The result is in Table 1. pKa value was estimated using ACD/pKa DB software. Calculations: [formula]

HSA = biological target: T2, HSA (Homo sapiens, UniProt P02768); assay: TRANSIL binding assay, HSA; details: PBS pH 7.4, 2 μM drug
T2 construct: purchased ADMEcell (Alameda, Calif.) TBP-0210-0096 / TBP-0210-1196
Protocol: (§1) TRANSIL® Binding Methodology (www.admecell.com)—Assay Buffers: phosphate buffered saline (“PBS”), pH 7.4 (Gibco 10010) and dimethylsulfoxide (“DMSO”). Plates: Ordered from ADMEcell (Alameda, Calif.). AGP—Full Plate: TBP-0211-0096; AGP—Strip Plate: TBP-0211-1196; HSA—Full Plate: TBP-0210-0096; HSA—Strip Plate: TBP-0210-1196. Stop Solution: 100% Acetonitrile spiked with Internal Standard (0.4 μM final concentration).
(§2) Drug Dilution: Dilution of drug samples to make a final 2 μM drug concentration (1% DMSO) (used 360 μL of final diluted drug per protein testing, i.e., 720 μL to run both AAG and HSA). Brought drug up to a 10 mM stock solution in DMSO. Diluted 10 mM stock to a 200 μM (0.2 mM) stock solution (added 4 μL of 10 mM stock solution into 196 μL, of DMSO). Diluted 200 μM stock to a 20 μM stock solution (added 100 μL of 200 μM DMSO stock solution into 900 μL of PBS Buffer, pH 7.4).
(§3) Thawed the assay kit either at room temperature (approximately 3 hours) or in the refrigerator at 4° C. overnight. The plates were put in the incubator, CO2 (5%) for 30 minutes prior to addition of compound. A pre-dilution of the compounds (10-fold assay concentration) were prepared, see Drug Dilution step above. […] Test article solution (45 μL) was added to the tubes/well of the ready-to-use kit and incubated for 2 minutes. […] The concentration of the supernatant was quantified with LC/MS (API4000). […]

Dose limiting toxicity = details: in vivo
From the text: As such, prophylactic granulocyte colony-stimulating factory (“G-CSF”) may be administered.

RPMI-8226 MM cells = assay: Cell Titer Blue viability assay with added AAG, RPMI 8226; assay type: cell-based, human
From the text: (§4) Kit: Cell Titer-Blue Cell Viability Assay, Promega Corp. (Madison Wis.) Catalog No. G8081

NCI H929 MM cells = assay: 3 day Cell Titer Blue viability assay with added AAG, NCI H929; assay type: cell-based, human
From the text: as §4

AAG = biological target: T3, AAG; assay: TRANSIL binding assay, AAG; design: species or system human
T3 construct: other: TRANSIL, PBS pH 7.4, 2 μM drug; other: not for other serum proteins such as albumin; fused on or other part: AGP immobilised on TRANSIL silica beads (ready-to-use kit)
Protocol: as §1, §2, §3

[1] = system: Patients with Relapsed or Refractory Multiple Myeloma; assay: Clinical study in patients with relapsed or refractory multiple myeloma, analysed by baseline [AAG]; assay type: in vivo, human
Protocol: The R&D Systems, Inc. (Minneapolis, Minn.) Quantikine® Human α1-Acid Glycoprotein Immunoassay (Catalog No. DAGPOO) is a 4.5 hour solid-phase ELISA designed to measure human AAG in cell culture supemates, serum, plasma, and urine. This assay employed the quantitative sandwich enzyme immunoassay technique. […] Standards and samples are pipetted into the wells, and any AAG present is bound by the immobilized antibody. After washing away any unbound substances, an enzyme-linked polyclonal antibody specific for AAG is added to the wells. Following a wash to remove any unbound antibody-enzyme reagent, a substrate solution is added to the wells, and color develops in proportion to the amount of AAG bound in the initial step. The color development is stopped, and the intensity of the color is measured. The assay was performed as described in the package insert, except where described otherwise below.

[2] = Phase 2 + dex (with dexamethasone), All Patients, n=18
[3] = Phase 2 + dex (with dexamethasone), [AAG] <1.1 g/L, n=12
[4] = Phase 2 Single Agent, All Patients, n=27
[5] = Phase 2 Single Agent, [AAG] <1.1 g/L, n=21

T2 sequence (P02768 25-609): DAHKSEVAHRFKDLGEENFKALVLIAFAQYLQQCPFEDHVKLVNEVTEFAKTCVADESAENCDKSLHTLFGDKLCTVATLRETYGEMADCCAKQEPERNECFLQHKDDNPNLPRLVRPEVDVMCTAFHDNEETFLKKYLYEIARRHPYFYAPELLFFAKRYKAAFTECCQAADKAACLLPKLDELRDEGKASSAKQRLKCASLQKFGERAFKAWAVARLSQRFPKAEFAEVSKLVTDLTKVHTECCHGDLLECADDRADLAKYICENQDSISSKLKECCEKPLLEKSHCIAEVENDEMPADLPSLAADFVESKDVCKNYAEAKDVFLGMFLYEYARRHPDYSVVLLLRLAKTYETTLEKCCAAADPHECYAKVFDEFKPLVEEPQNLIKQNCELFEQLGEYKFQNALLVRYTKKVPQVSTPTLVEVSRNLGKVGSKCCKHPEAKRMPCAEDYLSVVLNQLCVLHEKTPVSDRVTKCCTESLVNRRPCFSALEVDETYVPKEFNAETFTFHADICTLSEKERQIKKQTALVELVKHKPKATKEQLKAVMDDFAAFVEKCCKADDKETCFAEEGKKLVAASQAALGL

## CON(C)C(=O)N1N=C(c2cc(F)ccc2F)S[C@@]1(CCCN)c1ccccc1.Cl [ARRY-520, (S)-2-(3-Aminopropyl)-5-(2,5-difluorophenyl)-N-methoxy-N-methyl-2-phenyl-1,3,4-thiadiazole-3(2H)-carboxamide]
KSP
  IC50: 0.000438 µM
% Fu to human plasma
  fraction unbound at 2 min: 0.07
HSA
  Kd: 147 µM
Dose limiting toxicity
  major dose limiting toxicity (DLT): neutropenia
RPMI-8226 MM cells
  effect of increasing AAG levels on cell sensitivity: decrease cell sensitivity
NCI H929 MM cells; AAG 0.5-4 mg/mL final concentration, FIG. 1
  decrease of cellular sensitivity to ARRY-520 as [AAG] increases: greater than 30 fold
NCI H929 MM cells; NCI H929
  effect of increasing AAG levels on cell sensitivity: decrease cell sensitivity
AAG; TRANSIL, PBS pH 7.4, 2 μM drug
  Kd: 5 µM
AAG; not for other serum proteins such as albumin
  affinity for AAG in in vitro assays: low micromolar affinity
[1]; Phase 1, All Patients, n=27
  Median Time on Study (months): 3.9 months
  ≧MR, number of patients: 4
  ≧MR, rate: 15%
  ≧PR, number of patients: 3
  ≧PR, rate: 11%
[1]; Phase 1, [AAG] <1.1 g/L, n=20
  Median Time on Study (months): 5.2 months
  ≧MR, number of patients: 4
  ≧MR, rate: 20%
  ≧PR, number of patients: 3
  ≧PR, rate: 15%
[1]; [2]
  Median Time on Study (months): 3.9 months
  ≧MR, number of patients: 6
  ≧MR, rate: 33%
  ≧PR, number of patients: 4
  ≧PR, rate: 22%
[1]; [3]
  Median Time on Study (months): 6.2 months
  ≧MR, number of patients: 6
  ≧MR, rate: 50%
  ≧PR, number of patients: 4
  ≧PR, rate: 33%
[1]; [4]
  Median Time on Study (months): 2.8 months
  ≧MR, number of patients: 6
  ≧MR, rate: 22%
  ≧PR, number of patients: 5
  ≧PR, rate: 19%
[1]; [5]
  Median Time on Study (months): 3.4 months
  ≧MR, number of patients: 6
  ≧MR, rate: 29%
  ≧PR, number of patients: 5
  ≧PR, rate: 24%
[1]; baseline [AAG] greater than 1.1 g/L, FIG. 5
  time to coming off study, most patients with high baseline [AAG]: less than 5 months
[1]; with each 1.0 g/L increase in [AAG], p<0.01
  increase of risk for discontinuing the study: 2.5 fold

From patent publication US20150231117A1 (Array BioPharma Inc., priority 2012, published 2015)
